The results in this text go back to patent US20250353858A1, “CONDENSED HETEROCYCLIC COMPOUNDS AS INHIBITOR OF DIACYLGLYCEROL KINASES” (BEONE MEDICINES I GMBH, priority 2023, published 2025).

For one assay, the target named is DGKζ (Homo sapiens (Human), UniProt Q13574). The assay can be described thus: Biochemical DGK IC50 assay (ADP-Glo, lipid micelle substrate), DGKζ. The conditions noted are these: full length DGKζ 0.5 nM, ATP 140 μM, DAG 80 μM. The protocol:
(§1) Enzymatic reactions of DGKζ, DGKα and DGKδ were performed using ADP-Glo assay with lipid micelle substrate. […] Full length DGKα (D21-10BG, SignalChem) and full length DGKδ (D23-10G, SignalChem) were purchased. Lipid micelle was prepared by dissolving DAG (Sigma, 317505-10MG) and PS (Sigma, P7769-100MG) with chloroform which was furtherly removed by rotary evaporation. The resulted product was resuspended in buffer containing 25 mM HEPES pH 7.0, 0.5 mM EDTA and 160 mM Octyl β-D glucopyranoside by vigorous mixing and ultrasonic (IID, Scientz).
(§2) The inhibition activities testing for the compound disclosed herein were carried out at room temperature in assay buffer containing 50 mM HEPES, 10 mM MgCl2, 0.01% BSA, 0.1 mM Na3VO4, 0.005% Tween-20 and 0.01 mM CaCl2. Compounds in DMSO were dispensed into wells of a black 384 well plate (Corning 4514) using D300e digital dispenser (Tecan). […] 3 μL 2× enzyme solution was added to wells. […] After 1 hour reaction, 5 μL ADP-Glo reagent (Promga V9101) was added and incubated for 40 minutes. 10 μL Kinase Detection reagent was added and incubated for 30 minutes. Luminescence was measured on a microplate reader (PHERAstar FSX, BMG labtech). The IC50s are calculated based on inhibition of enzyme activity in the presence of increasing concentrations of compounds.
Human His-TEV-DGK-zeta-pFastBac1 and human baculovirus samples was generated using the Bac-to-Bac baculovirus expression system (Invitrogen) according to the manufacturer's protocol. The DNA used for expression of DGK-zeta, have SEQ ID Nos: 1. Baculovirus amplification was achieved using infected SF9 cells at 1:2000 virus/cells ratios, and grown for 96 hours at 27° C. post-transfected.
Full length human DGKζ produced as described above, was purified from Sf9 baculovirus-infected insect cell paste. The cells were lysed using sonication method, and the lysates were clarified by centrifugation.
On the technique in general: ADP-Glo turns the ADP formed in a reaction into a luminescent signal.

The next assay addresses DGKα (Homo sapiens (Human), UniProt P23743). The assay can be described thus: Biochemical DGK IC50 assay (ADP-Glo, lipid micelle substrate), DGKα. Also: full length DGKα 7.5 nM. The conditions noted are these: full length DGKα […], ATP 140 μM, DAG 80 μM. The protocol: as §1, §2

Chain of DGKζ (Q13574 other isoform, or with tags, fused parts or gaps): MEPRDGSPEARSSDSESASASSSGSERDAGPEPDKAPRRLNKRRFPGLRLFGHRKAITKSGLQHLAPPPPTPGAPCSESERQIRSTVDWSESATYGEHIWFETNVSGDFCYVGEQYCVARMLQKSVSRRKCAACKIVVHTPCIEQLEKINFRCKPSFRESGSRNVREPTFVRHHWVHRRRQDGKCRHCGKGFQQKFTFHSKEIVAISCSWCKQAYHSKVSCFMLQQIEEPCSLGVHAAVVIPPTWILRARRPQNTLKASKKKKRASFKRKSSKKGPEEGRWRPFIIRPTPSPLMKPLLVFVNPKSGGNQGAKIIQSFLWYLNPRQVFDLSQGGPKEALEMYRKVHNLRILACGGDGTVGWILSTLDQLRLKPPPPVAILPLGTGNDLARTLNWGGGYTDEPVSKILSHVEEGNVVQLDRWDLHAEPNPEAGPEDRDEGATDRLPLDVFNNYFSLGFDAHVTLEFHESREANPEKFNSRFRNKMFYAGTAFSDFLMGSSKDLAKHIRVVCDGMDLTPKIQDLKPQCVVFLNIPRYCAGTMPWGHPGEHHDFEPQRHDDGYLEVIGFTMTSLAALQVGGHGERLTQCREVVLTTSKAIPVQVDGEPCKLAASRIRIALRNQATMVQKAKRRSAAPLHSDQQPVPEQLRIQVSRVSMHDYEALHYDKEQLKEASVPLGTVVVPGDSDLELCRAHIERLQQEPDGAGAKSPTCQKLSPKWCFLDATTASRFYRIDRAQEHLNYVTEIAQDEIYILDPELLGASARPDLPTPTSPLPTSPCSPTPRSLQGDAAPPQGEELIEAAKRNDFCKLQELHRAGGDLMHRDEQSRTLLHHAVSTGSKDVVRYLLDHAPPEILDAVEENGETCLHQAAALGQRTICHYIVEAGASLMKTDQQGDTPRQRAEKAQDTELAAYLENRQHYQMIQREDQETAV
Chain of DGKα (P23743 whole entry): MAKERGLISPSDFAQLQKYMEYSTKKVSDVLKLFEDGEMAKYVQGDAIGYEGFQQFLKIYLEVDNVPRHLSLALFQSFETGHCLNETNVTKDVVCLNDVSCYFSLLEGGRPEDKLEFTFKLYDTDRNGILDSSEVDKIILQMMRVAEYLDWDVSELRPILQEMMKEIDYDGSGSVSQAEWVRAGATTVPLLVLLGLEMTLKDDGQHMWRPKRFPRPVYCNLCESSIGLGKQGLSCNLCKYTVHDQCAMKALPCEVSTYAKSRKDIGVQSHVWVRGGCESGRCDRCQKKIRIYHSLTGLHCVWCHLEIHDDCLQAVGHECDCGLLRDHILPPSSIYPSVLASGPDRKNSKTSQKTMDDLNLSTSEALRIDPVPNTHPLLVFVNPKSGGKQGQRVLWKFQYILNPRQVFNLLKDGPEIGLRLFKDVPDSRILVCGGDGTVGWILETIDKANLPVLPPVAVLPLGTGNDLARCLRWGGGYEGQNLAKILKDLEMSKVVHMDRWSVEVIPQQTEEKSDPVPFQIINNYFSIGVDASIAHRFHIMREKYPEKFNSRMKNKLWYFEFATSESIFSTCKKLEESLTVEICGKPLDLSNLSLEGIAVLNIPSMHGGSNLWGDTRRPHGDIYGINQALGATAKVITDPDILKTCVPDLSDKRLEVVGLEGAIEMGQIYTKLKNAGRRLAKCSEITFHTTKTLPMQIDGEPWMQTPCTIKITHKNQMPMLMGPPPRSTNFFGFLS

By IC50 is commonly meant the midpoint of a concentration-inhibition curve. Read a low IC50 as inhibition by little substance. As for `CC[C@H]1CN(C(C)c2ccn3ncc(F)c3n2)[C@H](CC)CN1c1nc(=O)n(C)c2cc(CC#N)nn12` (stereo partly drawn) [Compound A50, 2-(4-((2S,5R)-2,5-diethyl-4-(1-(3-fluoropyrazolo[1,5-a]pyrimidin-5-yl)ethyl)piperazin-1-yl)-1-methyl-2-oxo-1,2-dihydropyrazolo[1,5-a][1,3,5]triazin-7-yl)acetonitrile], the results for the IC50 on DGKζ and against DGKα were 38 nM and 55 nM, respectively.
The corresponding values for `CC[C@H]1CN(C(C)c2ccn3nc(C)cc3c2)[C@H](CC)CN1c1nc(=O)n(C)c2cc(CC#N)nn12` (stereo partly drawn) [Compound A55, 2-(4-((2S,5R)-2,5-diethyl-4-(1-(2-methylpyrazolo[1,5-a]pyridin-5-yl)ethyl)piperazin-1-yl)-1-methyl-2-oxo-1,2-dihydropyrazolo[1,5-a][1,3,5]triazin-7-yl)acetonitrile] are 53 nM and 150 nM.
The matching figures for `CC[C@H]1CN(C(C)c2ccn3nc(F)cc3n2)[C@H](CC)CN1c1nc(=O)n(C)c2cc(CC#N)nn12` (stereo partly drawn) [Compound A56, 2-(4-((2S,5R)-2,5-diethyl-4-(1-(2-fluoropyrazolo[1,5-a]pyrimidin-5-yl)ethyl)piperazin-1-yl)-1-methyl-2-oxo-1,2-dihydropyrazolo[1,5-a][1,3,5]triazin-7-yl)acetonitrile]: 73 nM and 17 nM.
Consider `CC[C@H]1CN(C(C)c2ccn3nc(Cl)cc3n2)[C@H](CC)CN1c1nc(=O)n(C)c2cc(CC#N)nn12` (stereo partly drawn) [Compound A58, 2-(4-((2S,5R)-4-(l-(2-chloropyrazolo[1,5-a]pyrimidin-5-yl)ethyl)-2,5-diethylpiperazin-1-yl)-1-methyl-2-oxo-1,2-dihydropyrazolo[1,5-a][1,3,5]triazin-7-yl)acetonitrile], for which the IC50 on DGKζ was found to be 42 nM; against DGKα it was 15 nM.
On to `CC[C@H]1CN(C(C)c2ccn3nc(Cl)c(F)c3n2)[C@H](CC)CN1c1nc(=O)n(C)c2cc(CC#N)nn12` (stereo partly drawn) [Compound A59, 2-(4-((2S,5R)-4-(1-(2-chloro-3-fluoropyrazolo[1,5-a]pyrimidin-5-yl)ethyl)-2,5-diethylpiperazin-1-yl)-1-methyl-2-oxo-1,2-dihydropyrazolo[1,5-a][1,3,5]triazin-7-yl)acetonitrile], for which the IC50 against DGKζ was determined as 38 nM; at DGKα, 111 nM.
For `CC[C@H]1CN(C(C)c2ccn3nc(F)c(F)c3n2)[C@H](CC)CN1c1nc(=O)n(C)c2cc(CC#N)nn12` (stereo partly drawn) [Compound A60, 2-(4-((2S,5R)-4-(1-(2,3-difluoropyrazolo[1,5-a]pyrimidin-5-yl)ethyl)-2,5-diethylpiperazin-1-yl)-1-methyl-2-oxo-1,2-dihydropyrazolo[1,5-a][1,3,5]triazin-7-yl)acetonitrile], the values for the IC50 at DGKζ and at DGKα were 40 nM and 63 nM, respectively.
